Source: ChEMBL document CHEMBL3585311, “Computational design and chemometric QSAR modeling of Plasmodium falciparum carbonic anhydrase inhibitors” (Bioorg Med Chem Lett, 2014)

test: Inhibition of Plasmodium falciparum recombinant carbonic anhydrase

SMILES	Ki
NS(=O)(=O)c1ccccc1NS(=O)(=O)c1c(F)c(F)c(F)c(F)c1F	3.06 µM
NS(=O)(=O)c1nnc(NS(=O)(=O)C(F)(F)C(F)(F)C(F)(F)C(F)(F)C(F)(F)C(F)(F)C(F)(F)C(F)(F)F)s1	0.192 µM
NS(=O)(=O)c1ccc(NC(=S)NC(=O)Nc2ccc(Cl)c(Cl)c2)cc1	0.18 µM
NS(=O)(=O)c1ccc(CCNC(=O)c2cc3ccccc3oc2=O)cc1	13.2 µM
NS(=O)(=O)c1ccc(CNC(=O)c2cc3ccccc3oc2=O)cc1	5.05 µM
NS(=O)(=O)c1ccc(NC(=O)c2cc3ccccc3oc2=O)cc1	5.82 µM
NS(=O)(=O)c1nnc(NC(=O)c2c(F)c(F)c(F)c(F)c2F)s1	3.44 µM
COC(=O)NS(=O)(=O)c1ccc(NC(=S)Nc2ccc(S(N)(=O)=O)cc2)cc1	4.62 µM
COc1ccc2oc(=O)cc(CC(=O)Nc3ccccc3S(N)(=O)=O)c2c1	1.44 µM
COc1ccc2oc(=O)cc(CC(=O)Nc3cccc(S(N)(=O)=O)c3)c2c1	4.58 µM
COc1ccc2oc(=O)cc(CC(=O)NNc3ccc(S(N)(=O)=O)cc3)c2c1	3.51 µM
COc1ccc2oc(=O)cc(CC(=O)c3cc(C(F)(F)F)c(S(N)(=O)=O)cc3S(N)(=O)=O)c2c1	2.52 µM
NS(=O)(=O)c1ccc(/N=C/c2ccc(Br)c3ccccc23)cc1	4.16 µM
NS(=O)(=O)c1ccc(NC(=S)NC(=O)Nc2ccc(CC(Cl)Cl)cc2)cc1	0.756 µM
NS(=O)(=O)c1ccc(NC(=S)NC(=O)Nc2ccc(Cl)cc2)cc1	0.327 µM
Cc1cc(Cl)cc(C)c1NC(=O)NC(=S)Nc1ccc(S(N)(=O)=O)cc1	0.596 µM
Cc1cc(NC(=O)NC(=S)Nc2ccc(S(N)(=O)=O)cc2)c(Cl)c(C)c1Cl	0.514 µM
CCc1c(Cl)ccc(NC(=O)NC(=S)Nc2ccc(S(N)(=O)=O)cc2)c1Cl	0.464 µM
CC(Cl)(Cl)c1ccc(NC(=O)NC(=S)Nc2ccc(S(N)(=O)=O)cc2)cc1	0.452 µM
NS(=O)(=O)c1ccc(NC(=S)NC(=O)Nc2cccc(F)c2)cc1	0.424 µM
Cc1cc(F)c(C)c(NC(=O)NC(=S)Nc2ccc(S(N)(=O)=O)cc2)c1	0.518 µM
Cc1c(NC(=O)NC(=S)Nc2ccc(S(N)(=O)=O)cc2)cn2ncccc12	0.433 µM
Cc1ccc(NC(=O)NC(=S)Nc2ccc(S(N)(=O)=O)cc2)s1	0.505 µM
CC(C)(O)Nc1ccc(S(N)(=O)=O)cc1	2.22 µM
CC(F)(F)Nc1ccc(S(N)(=O)=O)cc1	0.74 µM

SMILES	Ki
NS(=O)(=O)c1ccc(Nc2cscn2)cc1	0.237 µM
NS(=O)(=O)c1ccc(Nc2ncsc2Cl)cc1	0.164 µM
NS(=O)(=O)c1ccc(Nc2nocc2Cl)cc1	0.164 µM
NS(=O)(=O)c1ccc(Nc2ncc(Cl)s2)cc1	0.164 µM
Cc1cc(C)cc(N(C(=O)Nc2ccccc2S(N)(=O)=O)c2ccccc2)c1	4.09 µM
Cc1ccc(C)c(N(C(=O)Nc2ccccc2S(N)(=O)=O)c2ccccc2)c1F	3.32 µM
NS(=O)(=O)c1ccccc1NC(=O)N(c1ccccc1)c1ccc(F)cc1	2.26 µM
NS(=O)(=O)c1ccccc1NC(=O)N(c1ccccc1)c1cccc(Cl)c1	1.65 µM
COc1ccc2cncc(CC(=O)Nc3ccccc3S(N)(=O)=O)c2c1	2.66 µM
COc1cc(CC(=O)Nc2ccccc2S(N)(=O)=O)c2ccccc2c1Cl	4.28 µM
NS(=O)(=O)c1nnc(NC(=S)NC(=O)Nc2ccccc2)s1	6.73 µM
NS(=O)(=O)c1cc(S(N)(=O)=O)c(C(F)(F)F)cc1NC(=O)c1cc2ccccc2oc1=O	9.03 µM
NS(=O)(=O)c1ccccc1NC(=O)c1cc2ccccc2oc1=O	18.5 µM
NS(=O)(=O)c1ccc(NC(=O)Nc2ccc(Cl)c(Cl)c2)cc1	5.58 µM
NS(=O)(=O)c1ccc(NNC(=O)c2cc3ccccc3oc2=O)cc1	4.06 µM
CCN(CC)C(=S)SNc1ccc(S(N)(=O)=O)cc1	3 µM
CCN(CC)C(=S)SNCc1ccc(S(N)(=O)=O)cc1	8.39 µM
NS(=O)(=O)c1ccccc1NC(=O)N(c1ccccc1)c1ccccc1	1.99 µM
NS(=O)(=O)c1ccc(CNC(=O)N(c2ccccc2)c2ccccc2)cc1	6.03 µM
NC(=S)Nc1ccc(S(N)(=O)=O)cc1	2.1 µM
NS(=O)(=O)c1ccc(NS(=O)(=O)c2ccc(NC(=O)N(c3ccccc3)c3ccccc3)cc2)cc1	16.5 µM
NS(=O)(=O)c1ccc(NC(=O)c2ccc(S(N)(=O)=O)cc2)cc1	3.05 µM
Cn1nc(S(N)(=O)=O)s/c1=N/C(=O)c1c(F)c(F)c(F)c(F)c1F	6.87 µM
NS(=O)(=O)c1nnc(NS(=O)(=O)c2c(F)c(F)c(F)c(F)c2F)s1	2.58 µM
